This note sets out measurements from patent US20190062305A1, “PYRIDYL OR PYRAZINYL COMPOUNDS CARRYING A METHYL-BOUND ALPHA-AMINO ACID AMIDE GROUP” (ABBVIE DEUTSCHLAND GMBH & CO. KG, priority 2015, published 2019).

In data set [1] the target is T1, 5-HT2C receptor (Homo sapiens, UniProt P28335).
T1 construct: host or cells: U2OS
As to the kind of experiment: Human 5-HT2C functional assay (beta-arrestin2 recruitment, U2OS_HTR2C_β-Arrestin cells). Type of data set: cell-based. To be noted: for EC50: beta-arrestin2 recruitment, U2OS_HTR2C_β-Arrestin cells, 1.5 h incubation, read-out: EC50 5-HT2C (potency in functional assay); for Emax: relative efficacy vs response to 10 μM 5-HT or maximal 5-HT effect (100%). The procedure, abridged:
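U2OS cells expressing HTR2C with β-galactosidase complementation, switched to 1% serum medium 24 h post-plating, were treated next day with compound for 1.5 h; chemiluminescence read. Response expressed as % of 10 µM 5-HT or maximal 5-HT effect; EC50 from 4-parameter variable-slope fit.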

Data set [2] is described as follows: Metabolic stability in human liver microsomes, unbound intrinsic clearance (Cl int/fu mic). The settings on record: human, liver microsomes, pH 7.4, human liver microsomes 0.25 mg/mL, 0.5 μM compound, NADPH, read-out: Cl int, mic unb. (h) [l/h/kg] (unbound intrinsic clearance, human). Type of data set: in vitro ADME. Here is the method:
Samples of the tested compounds (0.5 μM) were preincubated together with human liver microsomes (0.25 mg of microsomal protein/mL) in 0.05 M potassium phosphate buffer of pH 7.4 in microtiter plates at 37° C. for 5 minutes. The reaction was started by adding NADPH (1.0 mM). After 0, 5, 10, 15, 20 and 30 minutes, an aliquot was removed, the reaction was cooled and stopped by adding twice the amount of quench solution consisting of acetonitrile/methanol 1:1, and containing 0.2 μM carbutamide as internal standard. The samples were frozen until analyzed. The remaining concentration of undegraded test substance was determined by liquid chromatography-tandem mass spectrometry (LC-MS/MS). The half-life (t1/2) was determined from the gradient of the ratio of the signal of (test substance/internal standard)/unit time plot, allowing the calculation of the half-life of the test substance, assuming first order kinetics, from the decrease in the concentration of the compound with time. The microsomal clearance ([…]) was calculated as follows: […]=((ln(2)/t 1⁄2)/Microsomal Protein Concentration (mg/ml))*1000, leading to the unit of uL/min/mg. The scaled clearance (mClin_scaled) was calculated as […]_scaled=m CLint*(Microsomal Yield (mg/kg BW))/1000000*60, leading to the units L/h/kg. The Microsomal Yield is defined by the specifics of the used microsomes. Calculations were modified from references: Di, The Society for Biomolecular Screening, 2003, 453-462; Obach, D M D, 1999 vol 27. N 11, 1350-1359. A suspension of 0.25 mg/ml microsomal protein spiked with 0.5 μM of test compound was pipetted on one side of a HTDialysis device (HTDialysis LLC, 37 Ledgewood Drive, Gales Fery CT 06335) separated by a membrane with a MWcut off 12-14 K. 50 mM K-Phosphate buffer (pH 7.4) was added on the other side of the well. After incubation at 37° C. for 4 h while shaking at 150 rpm, aliquots of both sides were taken, quenched with MeOH/ACN 1:1 and 0.2 μM of internal standard and frozen until analysis by LCMSMS Cl int unbound=Cl int/fu mic

T1 sequence (P28335 33-458): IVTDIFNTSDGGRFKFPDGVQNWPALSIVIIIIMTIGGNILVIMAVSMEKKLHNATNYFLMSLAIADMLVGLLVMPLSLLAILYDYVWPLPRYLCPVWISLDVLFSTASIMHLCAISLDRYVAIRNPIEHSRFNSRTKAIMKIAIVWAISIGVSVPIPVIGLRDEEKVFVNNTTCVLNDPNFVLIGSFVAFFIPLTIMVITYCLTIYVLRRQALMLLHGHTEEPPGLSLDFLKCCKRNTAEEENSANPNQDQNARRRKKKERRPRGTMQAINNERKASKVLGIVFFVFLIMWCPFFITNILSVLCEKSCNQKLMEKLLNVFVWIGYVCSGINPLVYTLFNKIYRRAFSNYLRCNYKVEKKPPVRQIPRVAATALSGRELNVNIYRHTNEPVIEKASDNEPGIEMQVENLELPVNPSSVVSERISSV
T1 sequence (P32121 whole entry partner): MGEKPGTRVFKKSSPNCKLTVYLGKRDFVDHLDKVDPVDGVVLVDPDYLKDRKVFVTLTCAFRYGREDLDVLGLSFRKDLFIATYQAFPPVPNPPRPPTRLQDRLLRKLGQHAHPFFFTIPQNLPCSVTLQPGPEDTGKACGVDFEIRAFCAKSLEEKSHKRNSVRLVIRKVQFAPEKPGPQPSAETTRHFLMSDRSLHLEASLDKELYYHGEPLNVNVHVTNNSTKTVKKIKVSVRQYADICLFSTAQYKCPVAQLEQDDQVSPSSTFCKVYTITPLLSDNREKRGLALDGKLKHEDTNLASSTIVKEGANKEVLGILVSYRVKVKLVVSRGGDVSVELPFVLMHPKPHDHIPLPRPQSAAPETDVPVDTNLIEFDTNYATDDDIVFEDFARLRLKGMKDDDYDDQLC

As usually defined, the EC50 is the concentration that produces a half-maximal response. The Emax is the maximal effect, on the per cent scale that the assay sets. In the case of `COc1nc(OC2CCC(F)(F)CC2)c(F)cc1CNC(=O)[C@@H]1CCN1` [Example 37, (2S)—N-[[6-(4,4-Difluorocyclohexoxy)-5-fluoro-2-methoxy-3-pyridyl]methyl]-azetidine-2-carboxamide; Succinic Acid], in data set [1], the half-maximal effective concentration (EC50) was < 0.02 µM and the maximal response (Emax) is 50 to 70%. Also, the CLint scaled at 0.5 μM in data set [2] was < 5 L/h/kg.

Consider `COc1nc(OC2CCC(C(F)(F)F)CC2)c(F)cc1CNC(=O)[C@@H]1CCN1C` (stereo partly drawn) [Example 38, (2S)—N-[[5-Fluoro-2-methoxy-6-[4-(trifluoromethyl)cyclohexoxy]-3-pyridyl]methyl]-1-methyl-azetidine-2-carboxamide; Succinic Acid], for which, in data set [1], the EC50 lay within 0.02 to 0.2 µM and the Emax was 50 to 70%. Moreover, the CLint scaled at 0.5 μM in data set [2] lay within 5 to 50 L/h/kg.

As to `COc1nc(OCCCC(F)(F)F)c(F)cc1CNC(=O)[C@@H]1CCCN1` [Example 40, (2S)—N-[[5-Fluoro-2-methoxy-6-(4,4,4-trifluorobutoxy)-3-pyridyl]methyl]-pyrrolidine-2-carboxamide; Succinic Acid], in data set [1], the half-maximal effective concentration (EC50) was < 0.02 µM and the Emax is > 70%. Further, in data set [2], the CLint scaled at 0.5 μM is < 5 L/h/kg.

Regarding `COc1nc(OCC2CC(F)(F)C2)c(F)cc1CNC(=O)[C@@H]1CCCN1` [Example 42, (2S)—N-[[6-[(3,3-Difluorocyclobutyl)methoxy]-5-fluoro-2-methoxy-3-pyridyl]-methyl]pyrrolidine-2-carboxamide; Succinic Acid], in data set [1], the EC50 was < 0.02 µM and the maximum response (Emax) is > 70%. Moreover, the CLint scaled at 0.5 μM in data set [2] is < 5 L/h/kg.

As for `COc1nc(OC2CCC(F)(F)CC2)c(F)cc1CNC(=O)C(C)N1CCC1` (stereo not drawn) [Example 43, 2-(Azetidin-1-yl)-N-[[6-(4,4-difluorocyclohexoxy)-5-fluoro-2-methoxy-3-pyridyl]-methyl]propanamide; Succinic Acid], in data set [1], the concentration giving a half-maximal response (EC50) lay in the range of 0.02 to 0.2 µM and the Emax was > 70%. Moreover, the CLint scaled at 0.5 μM in data set [2] was < 5 L/h/kg.

Regarding `COc1nc(OC2CC(F)(F)C2)c(F)cc1CNC(=O)[C@@H]1CCCN1` [Example 44, (2S)—N-[[6-(3,3-Difluorocyclobutoxy)-5-fluoro-2-methoxy-3-pyridyl]methyl]-pyrrolidine-2-carboxamide; Succinic Acid], in data set [1], the 50% effective concentration (EC50) is < 0.02 µM and the Emax is > 70%. Moreover, the CLint scaled at 0.5 μM in data set [2] was < 5 L/h/kg.

On to `COc1nc(OCC(F)(F)C(F)F)c(F)cc1CNC(=O)[C@@H]1CCCN1` [Example 46, (2S)—N-[[5-Fluoro-2-methoxy-6-(2,2,3,3-tetrafluoropropoxy)-3-pyridyl]methyl]-pyrrolidine-2-carboxamide; Succinic Acid], for which, in data set [1], the concentration for a half-maximal effect (EC50) was < 0.02 µM and the Emax is > 70%. Moreover, in data set [2], the CLint scaled at 0.5 μM was < 5 L/h/kg.

In the case of `COc1nc(OCC2CC(F)(F)C2(F)F)c(F)cc1CNC(=O)[C@@H]1CCCN1` (stereo partly drawn) [Example 47, (2S)—N-[[5-Fluoro-2-methoxy-6-[(2,2,3,3-tetrafluorocyclobutyl)methoxy]-3-pyridyl]methyl]pyrrolidine-2-carboxamide; Succinic Acid], in data set [1], the EC50 is < 0.02 µM and the Emax is > 70%. Besides, the CLint scaled at 0.5 μM in data set [2] is < 5 L/h/kg.

Regarding `COc1nc(OCC2(C(F)(F)F)CC2)c(F)cc1CNC(=O)[C@@H]1CCCN1` [Example 48, (2S)—N-[[5-Fluoro-2-methoxy-6-[[1-(trifluoromethyl)cyclopropyl]methoxy]-3-pyridyl]methyl]pyrrolidine-2-carboxamide; Succinic Acid], in data set [1], the half-maximal effective concentration (EC50) was < 0.02 µM and the Emax is > 70%. Further, the CLint scaled at 0.5 μM in data set [2] is < 5 L/h/kg.

Turning to `COc1nc(OCC(C)CC(F)(F)F)c(F)cc1CNC(=O)[C@@H]1CCCN1` (stereo partly drawn) [Example 49, (2S)—N-[[5-Fluoro-2-methoxy-6-(4,4,4-trifluoro-2-methyl-butoxy)-3-pyridyl]-methyl]pyrrolidine-2-carboxamide; Succinic Acid], in data set [1], the EC50 was < 0.02 µM and the Emax was > 70%. Further, the CLint scaled at 0.5 μM in data set [2] lay in the range of 5 to 50 L/h/kg.
